# Data published in publication PMC11724075, “Small-molecule-induced ERBB4 activation to treat heart failure” (Nature Communications, 2025).
# Several values for one entry are separate records, joined by “and”; a condition that tells them apart may be missing. Equal entries are not always repeated.
# Columns and labels:
# [1] = target: T1, ERBB4 receptor (Homo sapiens, UniProt Q15303); test: Fluorescence-based competition binding assay with F-NRG1 (flow cytometry) on U2OS ERBB4/ERBB4 cells; conditions: for Fluorescence-based competition assay with NRG1 and EF-1 (normalized signal): individual replicates
# T1 construct: host or cells: U2OS (osteosarcoma cells), PathHunter engineered line
# T1 sequence (Q15303 26-1308): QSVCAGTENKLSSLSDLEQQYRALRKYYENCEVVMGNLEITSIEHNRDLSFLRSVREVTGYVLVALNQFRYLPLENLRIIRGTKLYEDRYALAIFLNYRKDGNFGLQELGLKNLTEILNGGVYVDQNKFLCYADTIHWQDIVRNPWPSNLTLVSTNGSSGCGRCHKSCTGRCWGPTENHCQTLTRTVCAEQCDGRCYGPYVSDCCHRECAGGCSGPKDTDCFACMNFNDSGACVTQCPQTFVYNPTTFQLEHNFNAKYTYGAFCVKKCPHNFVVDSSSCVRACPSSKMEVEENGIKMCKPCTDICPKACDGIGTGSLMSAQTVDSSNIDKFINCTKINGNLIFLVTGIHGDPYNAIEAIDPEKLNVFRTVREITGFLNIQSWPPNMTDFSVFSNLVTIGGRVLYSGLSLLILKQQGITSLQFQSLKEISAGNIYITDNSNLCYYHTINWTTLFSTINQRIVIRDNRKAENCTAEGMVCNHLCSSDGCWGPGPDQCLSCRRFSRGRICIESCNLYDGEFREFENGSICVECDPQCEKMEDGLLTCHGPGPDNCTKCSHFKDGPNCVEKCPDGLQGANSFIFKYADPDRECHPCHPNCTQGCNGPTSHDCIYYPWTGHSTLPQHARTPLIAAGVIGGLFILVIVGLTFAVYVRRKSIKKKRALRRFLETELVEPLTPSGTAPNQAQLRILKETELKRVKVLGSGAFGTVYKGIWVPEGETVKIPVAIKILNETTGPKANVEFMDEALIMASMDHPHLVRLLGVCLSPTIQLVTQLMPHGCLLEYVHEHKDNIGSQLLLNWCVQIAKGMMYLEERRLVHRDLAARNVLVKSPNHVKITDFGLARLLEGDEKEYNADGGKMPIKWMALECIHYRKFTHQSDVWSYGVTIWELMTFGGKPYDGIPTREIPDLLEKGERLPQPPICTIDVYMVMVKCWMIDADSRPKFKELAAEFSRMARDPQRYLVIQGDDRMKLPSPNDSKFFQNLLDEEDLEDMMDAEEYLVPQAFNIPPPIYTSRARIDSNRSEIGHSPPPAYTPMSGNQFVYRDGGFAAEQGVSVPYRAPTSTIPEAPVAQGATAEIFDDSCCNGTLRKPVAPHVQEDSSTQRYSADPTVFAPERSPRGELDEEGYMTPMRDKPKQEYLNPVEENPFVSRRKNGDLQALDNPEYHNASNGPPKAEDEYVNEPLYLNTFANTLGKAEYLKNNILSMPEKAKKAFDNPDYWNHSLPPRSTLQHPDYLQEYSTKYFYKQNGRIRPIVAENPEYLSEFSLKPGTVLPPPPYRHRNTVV
# T1 sequence (Q15303 26-1308): as above
# Procedure: NRG1 was dissolved in PBS at a concentration of 1 mg/mL and labeled with Alexa Fluor 488 using the Alexa Fluor 488 microscale protein labeling kit (Thermo Fisher Scientific, A30006). A Bio-gel P-4 (Bio-Rad, 1504124) fine resin suspended in PBS and a dye:protein molar ratio of 5 was used to purify the labeled NRG1 according to the manufacturer’s instructions. Fluorescent labeling was evaluated by performing a dose-response experiment using F-NRG1 (1–1000 nM) on the U2OS ERBB4/ERBB4 dimerization cell line. Next, the same cell line was used to perform a competition binding assay with F-NRG1 using flow cytometry. Cells were plated in transparent U-bottom 96-well plates (Greiner Bio-One, M9436) at 5 × 10^5 cells/mL in 50 μL ice-cold buffer (PBS with 0.1% bovine serum albumin (BSA; Sigma-Aldrich, A7906) and 0.05% sodium azide (Sigma-Aldrich, S2002)). Next, cells were centrifuged at 17,968 × g for 4 min at RT and the supernatants were discarded. The cell pellets were washed with 50 μL ice-cold buffer by gently pipetting up and down. Centrifugation and washing were repeated, and the supernatants were discarded. For the competition assay between NRG1 and F-NRG1, cells were treated with NRG1 (1–100 nM) and F-NRG1 (30 nM). […] After gentle mixing of each sample, the plate was incubated for 1 h at 4 °C on a microplate shaker. Next, the plate was centrifuged at 17,968 × g for 4 min at RT and the supernatants were discarded. The cells were then washed with 100 μL ice-cold buffer, pelleted by centrifugation and washed again. The supernatants were discarded and 100 μL ice-cold buffer was added to the cell pellets and pipetted up and down to generate single-cell suspensions. These suspensions were transferred to 5-mL polystyrene round-bottom tubes, kept on ice, and exposed to minimum light until flow cytometric analysis (BD Accuri C6, BD Biosciences). Unstained cells were used to set the parameters of the flow cytometer.
# Supplementary Figure 3. Receptor binding assay. (a) Fluorescence-based competition assay between […]
# The Y-axis represents the […]
# percentage of specific binding of F-NRG1, the x-axis represents the molar concentration of unlabeled […]
# (b) DRC showing t he effect of NRG1 (full line with full circle) on the […]
# 1x10-6 M NRG1; n=5 biological replicates for NRG1 + EF -1 10 µM for all concentrations of NRG1, except […]
# concentrations of NRG1, except n=2 for 3x10-7 M and 1x10-6 M NRG1). All data are presented as mean ± SD. Source data are provided as a Source Data file . CPD, compound; DRC; dose response curve; FC, fold change; F-NRG1, fluorescent ly labeled NRG1; M, molar concentration; NRG1, neuregulin-1; Veh, […]
# [2] = test system: HCFs; test: In vitro collagen expression: COL3A1 mRNA in HCFs stimulated with TGF-β1; type: cell-based, human; conditions: for COL3A1 mRNA expression (FC): TGF-β1 10 ng/mL, 24 h, single replicates
# Procedure: HCFs were seeded at a density of 1.5 ×10^5 cells/well in doxycycline-free medium in 12-well plates (Greiner Bio-One, 665180) and incubated overnight. […] Compounds were pre-incubated for 10 min before addition of TGF-β1.
# RNA was extracted using Nucleospin RNA XS (Macherey-Nagel, 740902.50) according to the manufacturer’s instructions. For cDNA synthesis, total RNA was added to a mixture containing buffer with random hexamers and reverse transcriptase enzyme (TaqMan reverse transcription reagents, Applied biosystems, N8080234) after which samples were incubated for 10 min at 25 °C, 30 min at 48 °C, and 5 min at 95 °C. RT-qPCR was performed on QuantStudio 3 Real-time PCR system (Applied Biosystems) using Taqman Universal PCR Master Mix (Applied Biosystems, 4304437) and Taqman primers according to the manufacturer’s instructions. Settings were as follows: […] followed by 10 min at 95 °C, 40 cycles (45 cycles for ERBB4) of denaturation at 95 °C for 15 s, and 1 min at 60 °C. All reactions were run in duplicate, and all data were normalized against housekeeping genes glyceraldehyde-3-phosphate dehydrogenase (GAPDH), beta-actin (ACTB), or phosphoglycerate kinase 1 (PGK1). Expression levels were calculated using the comparative cycle method and expressed as fold change (FC) to appropriate controls. The following TaqMan primers were used (Thermo Fisher Scientific): GAPDH (Hs02758991_g1, Mm99999915_g1 and Rn01775763_g1), PGK1 (Hs99999906_m1), ID2 (Hs04187239_m1), BMPR1B (Hs01010965_m1), CACNA2D4 (Hs00297782_m1), DUSP2 (Hs00358879_m1), NR4A1 (Hs00374226_m1), SGK1 (Hs00178612_m1), COL1A1 (Mm00801666_g1), COL3A1 (Hs00943809_m1 and Mm00802305_g1), ERBB4 (Hs00955525_m1 and Rn00572447_m1), ACTB (Mm02619580_g1) and ANP (Mm01255747_g1).
# [3] = test system: iAMs; test: EdU proliferation assay in proliferating iAMs; type: cell-based, rat; conditions: for EdU-positive nuclei compared to the vehicle group (in words): EF-1 32 µM or NRG1 0.1 µM, 24 h; for In vitro EdU-positive cell count: individual replicates
# Procedure: EdU proliferation assay was performed using the Click-iT^TM EdU Cell Proliferation Kit for Imaging (ThermoFisher Scientific, C10337) following the protocol. Proliferating iAMs were seeded at a density of 10^5 cells/well in proliferating medium in 24-well plates and incubated overnight. […] Afterwards, the cell culture media were then replaced with 10 µM EdU in proliferating medium and incubated for 24 h at 37 °C. Next, iAMs were fixed with 4% PFA for 30 min at 4 °C. Cells were washed thrice with PBS, permeabilized by incubation with 0.1% Triton X-100 for 10 min at RT and counterstained with DAPI. Images were obtained by fluorescence microscopy (Celena S).
molecule,measurement,setting,value
O=C(NC1CC1)C(Sc1nc2ccccc2c(=O)n1C1CCCC1)c1ccccc1 (stereo not shown) [EF-1],competition with F-NRG1 binding (in words),"[1]; EF-1 0.1–100 μM, 30 nM F-NRG1",did not reduce binding of F-NRG1
same,Fluorescence-based competition assay with NRG1 and EF-1 (normalized signal),[1]; concentration 100 pM,100
same,Fluorescence-based competition assay with NRG1 and EF-1 (normalized signal),[1]; concentration 1e-7 M,100 and 98 and 104
same,Fluorescence-based competition assay with NRG1 and EF-1 (normalized signal),[1]; concentration 1e-6 M,102 and 93 and 105
same,Fluorescence-based competition assay with NRG1 and EF-1 (normalized signal),[1]; concentration 1e-5 M,98 (2×) and 92
same,Fluorescence-based competition assay with NRG1 and EF-1 (normalized signal),[1]; concentration 0.0001 M,94 (2×) and 95
same,COL3A1 mRNA expression (FC),"[2]; EF-1 + SiERBB4, 1e-6 M",1
same,COL3A1 mRNA expression (FC),"[2]; EF-1 + SiERBB4, 4e-6 M",0.5373 and 0.7163 and 0.5917 and 0.6311 and 0.7899 and 0.8499
same,COL3A1 mRNA expression (FC),"[2]; EF-1 + SiERBB4, 8e-6 M",0.8243 and 0.8469 and 0.7111 and 0.7439 and 0.7398 and 0.6183
same,COL3A1 mRNA expression (FC),"[2]; EF-1 + SiERBB4, 1.6e-5 M",0.5202 and 0.6505 and 0.7517 and 0.6477 and 0.5129
same,COL3A1 mRNA expression (FC),"[2]; EF-1 + SiERBB4, 3.2e-5 M",0.7721 and 0.6715 and 0.5121 and 0.7108 and 0.5403 and 0.6885
same,COL3A1 mRNA expression (FC),"[2]; EF-1 + SiScr, 1e-6 M",0.9505 and 1.0731 and 0.9765
same,COL3A1 mRNA expression (FC),"[2]; EF-1 + SiScr, 4e-6 M",0.3565 and 0.5152 and 0.404
same,COL3A1 mRNA expression (FC),"[2]; EF-1 + SiScr, 8e-6 M",0.4855 and 0.3848 and 0.5526
same,COL3A1 mRNA expression (FC),"[2]; EF-1 + SiScr, 1.6e-5 M",0.2758 and 0.3929 and 0.4764
same,COL3A1 mRNA expression (FC),"[2]; EF-1 + SiScr, 3.2e-5 M",0.4172 and 0.4035 and 0.5599
same,decrease of TGF-β1-induced COL3A1 mRNA levels,"[2]; HCFs, dose-dependent, 4–32 µM",up to 50%
same,EdU-positive nuclei compared to the vehicle group (in words),[3],significant decrease in EdU-positive nuclei
same,In vitro EdU-positive cell count,[3],0.7127 and 0.7822 and 0.8185 and 0.7982 and 0.7621
Cc1sc2nc(SC(C)C(=O)NCc3ccc4c(c3)OCO4)n(-c3ccccc3)c(=O)c2c1C (stereo not shown) [NA-1],effect on TGF-β1-induced COL3A1 expression in HCFs (in words),[2]; 4–32 µM,did not affect COL3A1 expression
same,COL3A1 mRNA expression (FC),"[2]; NA-1, 1e-6 M",1
same,COL3A1 mRNA expression (FC),"[2]; NA-1, 4e-6 M",0.6694 and 0.8324 and 0.8909
same,COL3A1 mRNA expression (FC),"[2]; NA-1, 8e-6 M",0.9443 and 0.7317 and 0.6882
same,COL3A1 mRNA expression (FC),"[2]; NA-1, 1.6e-5 M",0.7688 and 0.6597 and 0.5112
same,COL3A1 mRNA expression (FC),"[2]; NA-1, 3.2e-5 M",0.7866 and 0.7983 and 0.6723
neuregulin-1 [NRG1],IC50,"[1]; 30 nM F-NRG1, U2OS ERBB4/ERBB4 cells, read-out: IC50, reduction of binding of fluorescent NRG1 (F-NRG1) to the ERBB4 receptor",32 nM
same,Fluorescence-based competition assay with NRG1 and EF-1 (normalized signal),[1]; concentration 100 pM,100
same,Fluorescence-based competition assay with NRG1 and EF-1 (normalized signal),[1]; concentration 1e-9 M,68.5222 and 84.1596 and 93.8458 and 74.5974 and 128.088 and 100
same,Fluorescence-based competition assay with NRG1 and EF-1 (normalized signal),[1]; concentration 3e-9 M,80.2455 and 83.5978 and 102.302 and 89.9396 and 83.9805 and 87.652
same,Fluorescence-based competition assay with NRG1 and EF-1 (normalized signal),[1]; concentration 1e-8 M,67.9682 and 69.1706 and 85.6667 and 81.6967
same,Fluorescence-based competition assay with NRG1 and EF-1 (normalized signal),[1]; concentration 3e-8 M,77.0259 and 43.4293 and 100.206 and 81.3756 and 87.2588 and 82.6252 and 67.1018 and 62.6829 and 44.3344 and 108.803
same,Fluorescence-based competition assay with NRG1 and EF-1 (normalized signal),[1]; concentration 5e-8 M,65.1587 and 61.7658 and 51.2875 and 66.8315
same,Fluorescence-based competition assay with NRG1 and EF-1 (normalized signal),[1]; concentration 7.5e-8 M,7.1162 and 78.7156 and 54.3916 and 66.0513 and 10.1361 and 60.285 and -8.7833 and 64.1512
same,Fluorescence-based competition assay with NRG1 and EF-1 (normalized signal),[1]; concentration 9e-8 M,47.1877 and 5.376 and 43.6793
same,Fluorescence-based competition assay with NRG1 and EF-1 (normalized signal),[1]; concentration 1e-7 M,0
same,EdU-positive nuclei compared to the vehicle group (in words),[3],significant decrease in EdU-positive nuclei
same,In vitro EdU-positive cell count,[3],0.7207 and 0.8932 and 0.8227 and 0.7581 and 0.7231
